Measured values published in US20260102380A1, “Synthesis and Characterization of Cyclic Hydrocarbon Esters of Everolimus” (BIOTRONIK AG, priority 2022, published 2026).
Where “and” joins values, the source holds several entries; their conditions need not be identical. Equal entries are not always repeated. Where two headings read alike, the source gives them in different places.

Experiments:
[1] = pig
Protocol: (§1) To examine the effects of certain formulations of the present invention on porcine coronary artery samples, the samples were each prepared as follows:
(§2) Elution Media Preparation: Normal saline was prepared by weighing 4.5 grams of sodium chloride into a 500 mL Pyrex® bottle. 495.5 grams HPLC water was added to the 500 ml bottle. The bottle was then capped and vigorously shaken. 25% ethanol/saline elution media was prepared by weighing 25.0 grams of ethanol (200 proof) into a 100 mL Pyrex® bottle. 75.0 grams of normal saline was added to the 100 ml bottle containing ethanol. The bottle was capped and vigorously shaken.
(§3) Elution Method: Porcine coronary arterial vessels were obtained and dissected from hearts obtained from the butcher shop. Coronary arteries were flash frozen with dry ice then stored at −80° C. When ready for testing, arteries were removed from the freezer and allowed to thaw at room temperature. Any fat and muscle tissue were carefully removed using scissors and tweezers. Vessels were rinsed several times with normal saline containing 0.05% sodium azide.
(§4) Vessels were then cut into 1 cm sections. 5 μL of formulation (approximately 125 μg of drug) was carefully added onto the outer part of the tissue using a 10 μL Hamilton® syringe. Ethanol was allowed to evaporate at room temperature for 15-20 minutes.
(§5) Tissue was then placed into a 7 mL glass vial. 2 mL elution media, previously warmed to 37° C., was added carefully to each vial using an Eppendorf® pipette. Each vial was capped and placed in a 37° C. incubator and gently shaken at 100 spm (strokes per minute).
(§6) At certain time points, elution media was removed and fresh 2 mL media (at 37° C.) was slowly added to the vial.
(§7) Drug formulations in ethanol were applied (approximately 125 μg) onto previously frozen “butcher shop” porcine coronary arterial vessel and allowed to dry after 15-20 minutes.

[2] = Elution study on porcine coronary artery; conditions: for Percent of Drug Eluted Over Time: samples 1 and 2
Protocol: as §1, §2, §3, §4, §5, §6, §7

SMILES	Elution behavior from vessel tissue (in words) [1]	Time within which most of the drug eluted off the tissue [1]	Percent of Drug Eluted Over Time ([2]; 0.5 hours, approx. 125 μg drug on 1 cm vessel section, 25% ethanol/saline, 37° C.)	Percent of Drug Eluted Over Time ([2]; 1 hour, approx. 125 μg drug on 1 cm vessel section, 25% ethanol/saline, 37° C.)	Percent of Drug Eluted Over Time ([2]; 2 hours, approx. 125 μg drug on 1 cm vessel section, 25% ethanol/saline, 37° C.)	Percent of Drug Eluted Over Time ([2]; 3 hours, approx. 125 μg drug on 1 cm vessel section, 25% ethanol/saline, 37° C.)	Percent of Drug Eluted Over Time ([2]; 23 hours, approx. 125 μg drug on 1 cm vessel section, 25% ethanol/saline, 37° C.)	Percent of Drug Eluted Over Time ([2]; Extract (after extraction, following 23 hours of elution))	Elution behavior from vessel tissue (in words) ([2]; porcine coronary arterial tissue, 25% ethanol/saline, 37° C.)
CO[C@H]1C[C@@H]2CC[C@@H](C)[C@@](O)(O2)C(=O)C(=O)N2CCCC[C@H]2C(=O)O[C@H]([C@H](C)C[C@@H]2CC[C@@H](O)[C@H](OC)C2)CC(=O)[C@H](C)/C=C(\C)[C@@H](O)[C@@H](OC)C(=O)[C@H](C)C[C@H](C)/C=C/C=C/C=C/1C [Sirolimus]	eluting significantly faster than CRC-023	≤ 2 h	–	–	–	–	–	–	–
CO[C@H]1C[C@@H]2CC[C@@H](C)[C@@](O)(O2)C(=O)C(=O)N2CCCC[C@H]2C(=O)O[C@H]([C@H](C)C[C@@H]2CC[C@@H](OCCO)[C@H](OC)C2)CC(=O)[C@H](C)/C=C(\C)[C@@H](O)[C@@H](OC)C(=O)[C@H](C)C[C@H](C)/C=C/C=C/C=C/1C [Everolimus]	–	–	77% and 71%	86% and 76%	87% and 79%	88% and 80%	89% and 80%	89% and 81%	eluting significantly faster than CRC-023
